Measurements from patent US20210315927A1, “TREATING ARDS USING A POLY-OXYGENATED ALUMINUM HYDROXIDE” (HEMOTEK LLC, priority 2020, published 2021).

Test system: mechanically-induced ARDS in rodents
Parameters: species or system male Sprague Dawley rats
Details: rat, in vivo
Excerpt: The following protocol and experimental procedures were approved by the Thomas D Morris, Inc. Institutional Animal Care and Use Committee (Protocol #20-007) and are consistent with the National Institutes of Health guidelines for the humane treatment of laboratory animals. Study subjects were male Sprague Dawley rats (N=21; 250-300 g; 8-10 weeks old; Charles River Laboratories, Inc., Wilmington, Mass. housed in pairs with a 12/12 day night cycle and provided ad libitum access to feed and water.
Animals were inducted with 1-5% isoflurane in air for initial preoperative preparation and cannulations. The anesthetic plane was maintained with a continuous intravenous infusion (0.1 mg/kg/min) into a femoral vein using a pre-filled syringe of alfaxalone acetate (Alfaxan, Schering-Plough Animal Health, Welwyn Garden City, UK) that was connected to a syringe pump (Genie Touch™, Kent Scientific, Torrington, Conn.). A second femoral vein was cannulated to be used for infusion of IV treatments. A femoral artery cannula was connected to a pressure transducer for continuous monitoring of arterial blood pressures (BIOPAC MP-150, BIOPAC Systems, Goleta, Calif.). The same femoral artery cannula was also used to collect blood samples for analysis of blood gases and chemistry (ABL90 Flex, Radiometer, Denmark). […]

**Q.** “poly-oxygenated aluminum hydroxide [Ox66™]” was tested. Which “supraphysiologic levels of PAO2 or sO2” value did it give?
**A.** did not show supraphysiologic levels of PAO2 or sO2
